Assay results: US12336981B2, “Compounds and compositions for the inhibition of NAMPT” (Valo Health, Inc., priority 2010, dated 2025)
pIC50: −log10 of the molar value. Read-outs that look alike come from different tables or passages of the source.

What was measured:
A2780 cells = assay: In-vitro cell proliferation assay (SRB), A2780 cells; format: cell-based; conditions: Homo sapiens, A2780, 72 h, A2780 cells, 72 hours, read-out: A2780 IC50
Summary of the method: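 Proliferation is assessed by sulforhodamine B staining following a 72-hour incubation with compound dilutions containing 0.1% DMSO.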

NAMPT = target: T1, NAMPT (Homo sapiens, UniProt P43490); assay: Biochemical inhibition assay: NAMPT enzymatic reaction, NMN quantified by mass spectrometry; conditions: for pIC50: read-out: Biochem IC50
T1 construct: His tag; host or cells: E. coli
T1 sequence (P43490 whole entry): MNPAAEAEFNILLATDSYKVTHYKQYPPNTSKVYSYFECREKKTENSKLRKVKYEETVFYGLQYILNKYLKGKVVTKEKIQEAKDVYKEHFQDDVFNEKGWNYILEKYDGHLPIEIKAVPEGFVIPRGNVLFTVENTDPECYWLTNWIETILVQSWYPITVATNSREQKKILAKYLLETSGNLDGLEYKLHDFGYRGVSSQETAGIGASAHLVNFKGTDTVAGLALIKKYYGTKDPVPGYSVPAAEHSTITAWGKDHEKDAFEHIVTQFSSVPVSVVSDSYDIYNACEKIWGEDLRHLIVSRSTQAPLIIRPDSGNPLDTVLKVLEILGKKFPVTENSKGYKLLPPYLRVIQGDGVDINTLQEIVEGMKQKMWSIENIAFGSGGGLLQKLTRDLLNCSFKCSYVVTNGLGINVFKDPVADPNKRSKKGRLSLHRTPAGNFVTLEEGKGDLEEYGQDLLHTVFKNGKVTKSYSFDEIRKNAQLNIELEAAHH
Summary of the method: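 Inhibition of E. coli-expressed His-tagged human NAMPT, measured as NMN formation by mass spectrometry after a 30 min room-temperature reaction containing 1 μM NAM, 100 μM PRPP and 2.5 mM ATP.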

SMILES	pIC50 (A2780 cells; SRB)	pIC50 (NAMPT; NAMPT enzymatic assay)	IC50 (NAMPT; Biochem IC50 uM)	pIC50 (A2780 cells; SRB assay)	pIC50 (NAMPT; NAMPT enzymatic reaction)
CN(C)c1ccc(S(=O)(=O)c2ccc(CNC(=O)c3cc4cnccc4[nH]3)cc2)cn1 [N-({4-[6-(dimethylamino)pyridine-3-sulfonyl]phenyl}methyl)-1H-pyrrolo[3,2-c]pyridine-2-carboxamide]	8.47	7.68	–	–	–
CN(C)c1ccc(S(=O)(=O)c2ccc(CNC(=O)c3cc4ccncc4o3)cc2)cn1 [N-({4-[6-(dimethylamino)pyridine-3-sulfonyl]phenyl}methyl)furo[2,3-c]pyridine-2-carboxamide]	8.74	8.52	–	–	–
CN(C)c1ccc(S(=O)(=O)c2ccc(CNC(=O)c3ccc4nccn4c3)cc2)cn1 [N-({4-[6-(dimethylamino)pyridine-3-sulfonyl]phenyl}methyl)imidazo[1,2-a]pyridine-6-carboxamide]	8.57	7.35	–	–	–
CN(C)c1ccc(S(=O)(=O)c2ccc(CNC(=O)c3cnc4nccn4c3)cc2)cn1 [N-({4-[6-(dimethylamino)pyridine-3-sulfonyl]phenyl}methyl)imidazo[1,2-a]pyrimidine-6-carboxamide]	8.23	8.57	–	–	–
CN(C)c1ccc(S(=O)(=O)c2ccc(CNC(=O)c3cc4ccncc4s3)cc2)cn1 [N-({4-[6-(dimethylamino)pyridine-3-sulfonyl]phenyl}methyl)thieno[2,3-c]pyridine-2-carboxamide]	9.22	9.00	–	–	–
O=C(NCc1ccc(S(=O)(=O)c2ccc(N3CCOCC3)nc2)cc1)c1cc2cnccc2[nH]1 [N-({4-[6-(morpholin-4-yl)pyridine-3-sulfonyl]phenyl}methyl)-1H-pyrrolo[3,2-c]pyridine-2-carboxamide]	8.82	8.02	–	–	–
O=C(NCc1ccc(S(=O)(=O)c2ccc(N3CCOCC3)nc2)cc1)c1cc2ccncc2o1 [N-({4-[6-(morpholin-4-yl)pyridine-3-sulfonyl]phenyl}methyl)furo[2,3-c]pyridine-2-carboxamide]	9.05	8.70	–	–	–
O=C(NCc1ccc(S(=O)(=O)c2ccc(N3CCOCC3)nc2)cc1)c1ccc2nccn2c1 [N-({4-[6-(morpholin-4-yl)pyridine-3-sulfonyl]phenyl}methyl)imidazo[1,2-a]pyridine-6-carboxamide]	8.82	8.05	–	–	–
O=C(NCc1ccc(S(=O)(=O)c2ccc(N3CCOCC3)nc2)cc1)c1cnc2nccn2c1 [N-({4-[6-(morpholin-4-yl)pyridine-3-sulfonyl]phenyl}methyl)imidazo[1,2-a]pyrimidine-6-carboxamide]	8.48	8.96	–	–	–
O=C(NCc1ccc(S(=O)(=O)c2ccc(N3CCOCC3)nc2)cc1)c1cc2ccncc2s1 [N-({4-[6-(morpholin-4-yl)pyridine-3-sulfonyl]phenyl}methyl)thieno[2,3-c]pyridine-2-carboxamide]	9.15	–	0.0041 µM	–	–
O=C(NCc1ccc(S(=O)(=O)c2cccc(C(F)(F)F)n2)cc1)c1cnc2[nH]ncc2c1 [N-({4-[6-(trifluoromethyl)pyridine-2-sulfonyl]phenyl}methyl)-1H-pyrazolo[3,4-b]pyridine-5-carboxamide]	7.95	7.62	–	–	–
O=C(NCc1ccc(S(=O)(=O)c2cccc(C(F)(F)F)n2)cc1)c1cc2ccncc2o1 [N-({4-[6-(trifluoromethyl)pyridine-2-sulfonyl]phenyl}methyl)furo[2,3-c]pyridine-2-carboxamide]	8.51	8.30	–	–	–
O=C(NCc1ccc(S(=O)(=O)c2cccc(C(F)(F)F)n2)cc1)c1ccc2nccn2c1 [N-({4-[6-(trifluoromethyl)pyridine-2-sulfonyl]phenyl}methyl)imidazo[1,2-a]pyridine-6-carboxamide]	8.82	8.06	–	–	–
O=C(NCc1ccc(S(=O)(=O)c2cccc(C(F)(F)F)n2)cc1)c1cnc2nccn2c1 [N-({4-[6-(trifluoromethyl)pyridine-2-sulfonyl]phenyl}methyl)imidazo[1,2-a]pyrimidine-6-carboxamide]	7.69	7.94	–	–	–
O=C(NCc1ccc(S(=O)(=O)c2cccc(C(F)(F)F)n2)cc1)c1cc2ccncc2s1 [N-({4-[6-(trifluoromethyl)pyridine-2-sulfonyl]phenyl}methyl)thieno[2,3-c]pyridine-2-carboxamide]	8.66	8.68	–	–	–
O=C(NCc1ccc(S(=O)(=O)c2ccc(C(F)(F)F)nc2)cc1)c1cc2ccncc2s1 [N-({4-[6-(trifluoromethyl)pyridine-3-sulfonyl]phenyl}methyl)thieno[2,3-c]pyridine-2-carboxamide]	8.17	8.12	–	–	–
O=C(NCc1ccc(S(=O)(=O)Nc2cccc3c(=O)occc23)cc1)c1cc2cnccc2[nH]1 [N-({4-[(1-oxo-1H-isochromen-5-yl)sulfamoyl]phenyl}methyl)-1H-pyrrolo[3,2-c]pyridine-2-carboxamide]	–	–	–	5.64	8.10

SMILES	pIC50 (A2780 cells; SRB)	pIC50 (NAMPT; NAMPT enzymatic assay)	IC50 (NAMPT; Biochem IC50 uM)	pIC50 (A2780 cells; SRB assay)	pIC50 (NAMPT; NAMPT enzymatic reaction)
O=C(NCc1ccc(S(=O)(=O)Nc2ccc3cn[nH]c3c2)cc1)c1cc2cnccc2[nH]1 [N-({4-[(1H-indazol-6-yl)sulfamoyl]phenyl}methyl)-1H-pyrrolo[3,2-c]pyridine-2-carboxamide]	–	–	–	5.26	6.87
COc1ccc(OC)c(S(=O)(=O)c2ccc(CNC(=O)c3cnc4[nH]ncc4c3)cc2)c1OC [N-({4-[(2,3,6-trimethoxybenzene)sulfonyl]phenyl}methyl)-1H-pyrazolo[3,4-b]pyridine-5-carboxamide]	7.18	–	–	–	7.10
COc1ccc(OC)c(S(=O)(=O)c2ccc(CNC(=O)c3cc4ccncc4s3)cc2)c1OC [N-({4-[(2,3,6-trimethoxybenzene)sulfonyl]phenyl}methyl)thieno[2,3-c]pyridine-2-carboxamide]	8.26	7.92	–	–	–
COc1ccc(F)c(F)c1S(=O)(=O)c1ccc(CNC(=O)c2cc3cnccc3[nH]2)cc1 [N-({4-[(2,3-difluoro-6-methoxybenzene)sulfonyl]phenyl}methyl)-1H-pyrrolo[3,2-c]pyridine-2-carboxamide]	7.07	–	–	–	6.69
O=C(NCc1ccc(S(=O)(=O)Nc2ccc3c(c2)OCCO3)cc1)c1cc2cnccc2[nH]1 [N-({4-[(2,3-dihydro-1,4-benzodioxin-6-yl)sulfamoyl]phenyl}methyl)-1H-pyrrolo[3,2-c]pyridine-2-carboxamide]	–	–	–	< 5.00	< 5.00
COc1cc(C)cc(S(=O)(=O)c2ccc(CNC(=O)c3cc4cnccc4[nH]3)cc2)c1OC [N-({4-[(2,3-dimethoxy-5-methylbenzene)sulfonyl]phenyl}methyl)-1H-pyrrolo[3,2-c]pyridine-2-carboxamide]	8.70	8.00	–	–	–
COc1cc(C)cc(S(=O)(=O)c2ccc(CNC(=O)c3cc4ccncc4s3)cc2)c1OC [N-({4-[(2,3-dimethoxy-5-methylbenzene)sulfonyl]phenyl}methyl)thieno[2,3-c]pyridine-2-carboxamide]	8.57	8.22	–	–	–
COc1cccc(S(=O)(=O)c2ccc(CNC(=O)c3cnc4[nH]ncc4c3)cc2)c1OC [N-({4-[(2,3-dimethoxybenzene)sulfonyl]phenyl}methyl)-1H-pyrazolo[3,4-b]pyridine-5-carboxamide]	7.08	–	–	–	6.91
COc1cccc(S(=O)(=O)c2ccc(CNC(=O)c3ccc4nccn4c3)cc2)c1OC [N-({4-[(2,3-dimethoxybenzene)sulfonyl]phenyl}methyl)imidazo[1,2-a]pyridine-6-carboxamide]	7.60	–	–	–	7.16
COc1cccc(S(=O)(=O)c2ccc(CNC(=O)c3cc4ccncc4s3)cc2)c1OC [N-({4-[(2,3-dimethoxybenzene)sulfonyl]phenyl}methyl)thieno[2,3-c]pyridine-2-carboxamide]	8.47	8.05	–	–	–
Cc1cccc(S(=O)(=O)c2ccc(CNC(=O)c3cc4cnccc4[nH]3)cc2)c1C [N-({4-[(2,3-dimethylbenzene)sulfonyl]phenyl}methyl)-1H-pyrrolo[3,2-c]pyridine-2-carboxamide]	8.15	7.85	–	–	–
Cc1cccc(S(=O)(=O)c2ccc(CNC(=O)c3ccc4nccn4c3)cc2)c1C [N-({4-[(2,3-dimethylbenzene)sulfonyl]phenyl}methyl)imidazo[1,2-a]pyridine-6-carboxamide]	8.01	–	–	–	7.36
Cc1cccc(S(=O)(=O)c2ccc(CNC(=O)c3cc4ccncc4s3)cc2)c1C [N-({4-[(2,3-dimethylbenzene)sulfonyl]phenyl}methyl)thieno[2,3-c]pyridine-2-carboxamide]	8.36	7.96	–	–	–
Cc1cc(C)c(S(=O)(=O)c2ccc(CNC(=O)c3cnc4[nH]ncc4c3)cc2)cc1C [N-({4-[(2,4,5-trimethylbenzene)sulfonyl]phenyl}methyl)-1H-pyrazolo[3,4-b]pyridine-5-carboxamide]	7.71	–	–	–	7.50
Cc1cc(C)c(S(=O)(=O)c2ccc(CNC(=O)c3ccc4nccn4c3)cc2)cc1C [N-({4-[(2,4,5-trimethylbenzene)sulfonyl]phenyl}methyl)imidazo[1,2-a]pyridine-6-carboxamide]	7.85	–	–	–	8.03
Cc1cc(C)c(S(=O)(=O)c2ccc(CNC(=O)c3cc4ccncc4s3)cc2)cc1C [N-({4-[(2,4,5-trimethylbenzene)sulfonyl]phenyl}methyl)thieno[2,3-c]pyridine-2-carboxamide]	8.09	8.10	–	–	–
Cc1cc(C)c(S(=O)(=O)c2ccc(CNC(=O)c3cnc4[nH]ncc4c3)cc2)c(C)c1 [N-({4-[(2,4,6-trimethylbenzene)sulfonyl]phenyl}methyl)-1H-pyrazolo[3,4-b]pyridine-5-carboxamide]	6.00 to 7.00	–	–	–	6.87
